Data taken from patent US20190388377A1, “COMPOSITIONS AND METHODS FOR THE TREATMENT OF LIVER DISEASES AND DISORDERS” (AXCELLA HEALTH INC., priority 2018, published 2019).

Columns and labels:
Human CCL2 (MCP-1) = assay: MCP1 secretion by ELISA after 24 h, PHH model for NASH, Example 2; format: cell-based; conditions: FFA+TNFα
Protocol: (§1) PHH from two healthy human donors (Lonza, TRL) were seeded on day 0 at density of 6e04 cells in 96 well optical microplates (Thermofisher) in hepatocyte plating media (William's E medium, WEM) (Gibco) supplemented with 10% heat-inactivated FBS (Atlanta Bio), 2 mM Glutamax (Gibco), and 0.2% Primocin (InVivoGen) and incubated for 6 hours at 37° C., 5% CO2. After 6 hours, cells were washed twice and incubated overnight at 37° C., 5% CO2 with Hepatocytes defined medium (Corning) supplemented with 2 mM Glutamax (Gibco), and 1× Penicillin/Streptomycin. On day 1, cells were washed twice and incubated for 24 h in the hepatocyte culture media in the same conditions described above.
(§2) On day 2, cells were washed twice with DPBS 1× (Gibco) to remove excess amino acids and maintained in pretreatment media (1×HMDB, a defined custom amino acid concentration based on the mean physiological concentrations in blood, in WEM±supplemental amino acids): • a. Amino acid-free WEM (US Biologicals) supplemented with 11 mM Glucose (Sigma), 0.272 mM Sodium Pyruvate (Sigma), 1× P/S (Gibco) and containing 1×HMDB with no supplemental amino acids; or • b. The same media described above 1×HMDB WEM with supplemental amino acid and amino acid combination treatments at various concentrations. Cells were maintained in the defined media (a. & b.) for 24 hours at 37° C., 5% CO2. The HMDB values are published in the Human Metabolome Database (Wishart D S, Tzur D, Knox C, et al., HMDB: the Human Metabolome Database. Nucleic Acids Res. 2007 January; 35 (Database issue):D521-6. 17202168; which is hereby incorporated by reference in its entirety). Co-Treatment with Free Fatty Acids and Amino Acids Combination
(§3) After 24 h pre-treatment, cells maintained in the pretreatment media±supplemental amino acids (section (a. & b.) described above) were exposed to free fatty acids (FFA) at 250 uM with a ratio of 2:1 (Oleate:Palmitate) supplemented with TNF-α (Thermofisher) at 1 ng/ml. Cells were incubated with the FFAs mixture (FFAs+TNF-α)±supplemental amino acids treatments for 24 hours at 37° C., 5% CO2. After 24 hours incubation, media was removed for cytokine analysis and replaced by fresh media containing the same conditions described above (FFAs mixture±supplemental amino acids treatments). Cells were incubated for an additional 48 hours for a total of 72 hours of FFA and TNF-α stimulation. After 72 hours of incubation, media was removed for albumin and urea analysis and the cells were fixed for nuclei and lipid staining.
Human CCL2 (MCP-1) was measured by ELISA (Human […] DuoSet ELISA, R&D Systems) at 1/20 dilution in 1× Reagent Diluent (Reagent Ancillary Kit 2, R&D Systems). MCP1 data in primary human hepatocytes treated with FFA+TNFα+supplemental amino acids was normalized to 1×HMDB WEM+FFA+TNFα baseline. Data is reported as median fold change from control, statistical analysis was done using t-Test.

[1] = tested on: primary human hepatocytes; assay: Intracellular lipid accumulation after 72 h by fluorescence microscopy, PHH model for NASH, Example 2; format: cell-based; conditions: FFA+TNFα; for Lipid Median (median fold change from control): 72 h
Protocol: as §1, §2, §3
After 72 hours, cells were washed twice in 100 ul PBS 1× (Gibco), fixed with 4% Paraformaldehyde, and washed twice with PBS 1× (100 ul). After fixation, lipids were stained with HCS LipidTOX Red Neutral (Thermofisher Scientific) diluted 1000× and nuclei were stained with Hoechst 3342 (Life Technologies) diluted to 4 ug/ml. The LipidTOX™ neutral lipid stain has an extremely high affinity for neutral lipid droplets that was detected by fluorescence microscopy using a high content imager (Molecular Devices). Data was normalized to the cell concentration determined by nuclei count. Images were analyzed and total lipid area was calculated using granularity module in MetaXpress 6 software. Data is reported as median fold change from control, statistical analysis was done using t-Test.

Albumin = Albumin secretion after 72 h by ELISA, PHH model, Example 2; format: cell-based, human; conditions: FFA+TNFα
Protocol: as §1, §2, §3
Albumin secretion was measured as a functionality test in primary human hepatocytes. Albumin was measured by ELISA (Human Albumin ELISA Quantitation set, Bethyl Laboratories) at 1/200 dilution in the sample diluent (Bethyl Laboratories). Data is reported as median fold change from control, statistical analysis was done using t-Test.

Urea = Urea production after 72 h by urea nitrogen (BUN) colorimetric assay, PHH model, Example 2; format: cell-based, human; conditions: FFA+TNFα
Protocol: as §1, §2, §3
Urea was measured as an indicator of hepatocytes functionality by urea nitrogen direct assay (StanBio). Cell supernatant was added to the BUN color reagent and BUN acid reagent at 1(color):2(acid) ratio. Incubate the cell supernatant with BUN reagent for 12 min at 100° C. then for 5 min at 4° C. Read absorbance at 520 nm. Data was normalized to the control. Data is reported as median fold change from control, statistical analysis was done using t-Test.

Procollagen III = Procollagen III secretion by ELISA, TGFβ1-stimulated hepatic stellate cells, Example 4; format: cell-based, human; conditions: HSC, three donors
Protocol: (§4) Primary human hepatic stellate cells were obtained from Samsara Sciences. Cells from three different donors were grown in Complete HSC Medium to ˜80% confluence in T75 or T150 flasks below passage 10 were seeded into sterile, collagen I coated, 96-well optical plastic microplates (ThermoScientific) and incubated overnight at 37° C., 5% CO2 in a humidified incubator in DMEM with 2% Fetal Bovine Serum and 1% Antimycotic. […] After 24 hours of stimulus, supernatant was removed and used to measure Procollagen III and cells were then washed and fixed with 4% paraformaldehyde for further staining. Procollagen III, an important biomarker of fibrosis was measured by ELISA (Human PCIII Elisa Kit, G-Biosciences) following the manufacturer's recommendations. Fixed cells with 4% paraformaldehyde were permeabilized with 0.1% Triton X-100 then immunostained for alpha SMA and labeled for EdU incorporation.

[2] = tested on: alpha smooth muscle actin (αSMA); assay: HSC activation by alpha SMA immunostaining, TGFβ1-stimulated hepatic stellate cells; format: cell-based, human
Protocol: as §4, with “staining.” for “staining. Procollagen III, an important biomarker of fibrosis was measured by ELISA (Human PCIII Elisa Kit, G-Biosciences) following the manufacturer's recommendations. Fixed cells with 4% paraformaldehyde were permeabilized with 0.1% Triton X-100 then immunostained for alpha SMA and labeled for EdU incorporation.”
Procollagen III, an important biomarker of fibrosis was measured by ELISA (Human PCIII Elisa Kit, G-Biosciences) following the manufacturer's recommendations. Fixed cells with 4% paraformaldehyde were permeabilized with 0.1% Triton X-100 then immunostained for alpha SMA and labeled for EdU incorporation.
Cells were imaged using ImageXpress micro confocal high content imager (Molecular Devices). […] Image analysis was performed using MetaXpress version 6.2.3.733 (Molecular Devices).
Fixed cells immunostained for alpha smooth muscle actin (αSMA) were analyzed and stained area was normalized to total nuclei count. Fold change were calculated relative to the baseline amino acid (1×HMDB) condition stimulated with 3 ng/mL TGFβ1.

[3] = tested on: primary human hepatocytes; assay: Intracellular triglyceride level after 72 h, colorimetric assay, Example 3; format: cell-based; conditions: for triglyceride level (in words): FFAs+TNFα, two healthy donors
Protocol: On day 2, cells were washed twice with DPBS 1× (Gibco) and maintained in: • a. Amino acid-free WEM (US Biologicals) supplemented with 11 mM Glucose (Sigma), 0.272 mM Sodium Pyruvate (Sigma), 1× P/S (Gibco) and containing a defined custom amino acid concentration based on the mean physiological concentrations in blood (1× HMDB WEM (−) supplemental amino acids); or • b. The same media described above 1×HMDB WEM (+) supplemental amino acids treatment dose at a 30× of HMDB amino acid concentration. Cells were maintained in the defined amino acids media (a. & b.) for 24 hours at 37° C., 5% CO2. Co-Treatment with Free Fatty Acids and Various Amino Acids Supplemental Treatments
After 24 h pre-treatment, cells maintained in the same media (a. & b.) described above 1×HMDB±supplemental amino acids were now exposed to free fatty acids (FFA) at 250 uM with a ratio of 2:1 (Oleate:Palmitate) supplemented with TNF-α (Thermofisher) at 1 ng/ml or vehicle. Cells with the FFAs+TNFα mixture±amino acids treatments were incubated for 72 hours at 37° C., 5% CO2 with a media change after the first 24 hours.
After 72 hours, cells were washed once with cold PBS 1× (Gibco), scrapped off and collected into 75 ul of standard diluent (Cayman). Collected cells were vortexed for 1 min at a 2500 rpm speed followed by two times sonication (Elmasonic sonicator) for 1 min each. Supernatants were collected for triglyceride analysis after centrifugation at 1000 rpm for 10 min at 4° C. Intracellular triglyceride level was assessed using triglyceride colorimetric assay kit (Cayman) and following manufacturer's recommendations. Data was normalized to the total amount of protein using Bicinchoninic Acid Protein Assay Kit (Sigma). Data is reported as median fold change from FFAs+TNFα condition, statistical analysis was done using t-Test.

Row | Structure (SMILES) | MCP1 secretion (in words) (Human CCL2 (MCP-1); hepatocyte donor 1) | Lipid Median (median fold change from control) ([1]; donor 1, AA Conc. 20X) | lipid accumulation (in words) ([1]; hepatocyte donor 1) | albumin secretion (in words) (Albumin; hepatocyte donor 1) | urea production (in words) (Urea; hepatocyte donor 1) | procollagen III secretion (in words) (Procollagen III) | alpha SMA stained area (in words) [2] | MCP1 secretion (in words) (Human CCL2 (MCP-1); hepatocyte donor 2) | lipid accumulation (in words) ([1]; hepatocyte donor 2) | albumin secretion (in words) (Albumin; hepatocyte donor 2) | urea production (in words) (Urea; hepatocyte donor 2) | triglyceride level (in words) [3] | Lipid Median (median fold change from control) ([1]; donor 1, AA Conc. 25X) | Lipid Median (median fold change from control) ([1]; donor 2, AA Conc. 30X) | Triglyceride Level relative to the baseline FFA + TNF, Median ([3]; FFA + TNF, 72 h, two donors, AA Conc 1X, Nac/Car 0 mM)
1 | CC(C)C[C@H](N)C(=O)O [L, L-leucine] | did not reduce MCP1 secretion | −0.725 | reduced lipid accumulation | decreased albumin production at a higher level than the previously described amino acids | No changes in urea production | had no impact on procollagen III secretion | – | – | – | – | – | – | – | – | –
2 | CC[C@H](C)[C@H](N)C(=O)O [I, L-isoleucine] | did not reduce MCP1 secretion | −0.105 | reduced lipid accumulation | did not reduce albumin secretion | No changes in urea production | had no impact on procollagen III secretion | – | – | – | – | – | – | – | – | –
3 | N=C(N)NCCC[C@H](N)C(=O)O [R, L-arginine] | did not reduce MCP1 secretion | – | did not reduce lipid accumulation | did not reduce albumin secretion | induced urea production | had no impact on procollagen III secretion | reduced the alpha SMA stained area | – | – | – | – | – | – | – | –
4 | CC(C)[C@H](N)C(=O)O [V, L-Valine] | did not reduce MCP1 secretion | −0.685 | reduced lipid accumulation | decreased albumin production at a higher level than the previously described amino acids | – | had no impact on procollagen III secretion | – | – | – | – | – | – | – | – | –
5 | C[N+](C)(C)C[C@H](O)CC(=O)[O-] [Car, L-carnitine] | did not reduce MCP1 secretion | – | reduced lipid accumulation | did not reduce albumin secretion | No changes in urea production | had no impact on procollagen III secretion | reduced the alpha SMA stained area | did not affect MCP1 secretion | reduced lipid accumulation but less than the previously described combinations | reduced albumin secretion | slightly reduced urea production | reduces triglyceride level but the effect was less pronounced than the combinations described previously | – | – | –
6 | N[C@@H](CO)C(=O)O [S, L-serine] | did not reduce MCP1 secretion | – | reduced lipid accumulation | decreased albumin production at a higher level than the previously described amino acids | No changes in urea production | had no impact on procollagen III secretion | – | did not affect MCP1 secretion | reduced lipid accumulation but less than the previously described combinations | reduced albumin secretion | slightly induce urea production | didn't have an impact on triglycerides | −0.178 | −0.42 | −0.176
7 | NC(=O)CC[C@H](N)C(=O)O [Q, L-glutamine] | did not reduce MCP1 secretion | −0.588 | reduced lipid accumulation | decreased albumin production at a higher level than the previously described amino acids | No changes in urea production | decreased procollagen III secretion but at a lower extent than LIRNacCar and LIRQNacSCar | – | – | – | – | – | – | – | – | –
